# Assays:
# thrombin = thrombin (Homo sapiens, UniProt P00734); conditions: background statement; cited from earlier work
# Factor Xa = Factor Xa (Homo sapiens, UniProt P00742); conditions: Luckett et al. J Mol. Biol. 1999; cited from earlier work
# matriptase = matriptase (Homo sapiens, UniProt Q9Y5Y6); conditions: background statement; cited from earlier work
# elastase = conditions: background statement; cited from earlier work
# bovine thrombin = target: T1, bovine thrombin (Bos taurus, UniProt P00735); assay: Thrombin inhibition, fluorescent substrate N-t-Boc Leu-Arg-Arg-AMC, Ki by Dixon plots; type: biochemical; conditions: read-out: Ki of SFTI-1 (nM), Thrombin; room temperature, pH 8.5
# T1 construct: purchased Sigma (Sigma Chemical Co., St. Louis, Mo.)
# Description: (§1) 13, 2003, and which is incorporated herein by reference.
# cathepsin G = target: T2, cathepsin G (Homo sapiens, UniProt P08311); conditions: background statement; cited from earlier work
# T2 sequence (P08311 21-244): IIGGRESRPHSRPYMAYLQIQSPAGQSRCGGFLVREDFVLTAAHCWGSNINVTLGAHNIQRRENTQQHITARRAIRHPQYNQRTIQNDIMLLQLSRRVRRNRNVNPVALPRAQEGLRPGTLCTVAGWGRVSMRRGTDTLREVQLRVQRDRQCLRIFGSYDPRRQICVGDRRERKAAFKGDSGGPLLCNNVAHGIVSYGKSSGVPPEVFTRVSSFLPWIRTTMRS
# [1] = target: T3, Urokinase-type plasminogen activator (uPA) (Homo sapiens, UniProt P00749); assay: uPA inhibition, fluorescent substrate N-t-Boc-Leu-Gly-Arg-AMC, Ki by Dixon plots; type: biochemical; conditions: room temperature, pH 8.5
# T3 construct: from a partially purified uPA from human urine; from tissue; host or cells: human urine
# Description: as §1
# Sequence of matriptase (Q9Y5Y6 whole entry, species assumed): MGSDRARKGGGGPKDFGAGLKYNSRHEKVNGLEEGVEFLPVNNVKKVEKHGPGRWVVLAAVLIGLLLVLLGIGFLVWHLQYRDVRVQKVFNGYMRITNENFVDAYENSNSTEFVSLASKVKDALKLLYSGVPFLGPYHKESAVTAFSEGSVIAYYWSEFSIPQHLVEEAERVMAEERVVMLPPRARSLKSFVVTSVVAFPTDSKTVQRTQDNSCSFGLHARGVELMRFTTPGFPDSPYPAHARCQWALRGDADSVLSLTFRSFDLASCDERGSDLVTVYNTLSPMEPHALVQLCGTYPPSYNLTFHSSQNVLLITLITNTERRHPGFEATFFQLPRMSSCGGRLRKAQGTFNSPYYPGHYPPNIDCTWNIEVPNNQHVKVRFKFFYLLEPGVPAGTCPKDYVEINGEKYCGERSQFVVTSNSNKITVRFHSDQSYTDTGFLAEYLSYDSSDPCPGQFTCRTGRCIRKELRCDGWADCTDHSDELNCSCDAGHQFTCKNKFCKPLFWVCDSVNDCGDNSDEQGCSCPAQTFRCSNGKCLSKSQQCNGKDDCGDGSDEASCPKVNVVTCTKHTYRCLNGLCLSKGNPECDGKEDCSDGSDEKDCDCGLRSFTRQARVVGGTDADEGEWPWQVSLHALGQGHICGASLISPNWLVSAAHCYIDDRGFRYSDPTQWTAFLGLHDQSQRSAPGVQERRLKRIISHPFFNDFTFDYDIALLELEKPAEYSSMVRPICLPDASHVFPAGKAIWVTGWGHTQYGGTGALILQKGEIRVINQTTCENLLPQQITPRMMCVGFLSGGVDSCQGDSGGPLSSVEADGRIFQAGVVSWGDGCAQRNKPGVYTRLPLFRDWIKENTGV
# Sequence of Factor Xa (P00742 235-488 limits assumed): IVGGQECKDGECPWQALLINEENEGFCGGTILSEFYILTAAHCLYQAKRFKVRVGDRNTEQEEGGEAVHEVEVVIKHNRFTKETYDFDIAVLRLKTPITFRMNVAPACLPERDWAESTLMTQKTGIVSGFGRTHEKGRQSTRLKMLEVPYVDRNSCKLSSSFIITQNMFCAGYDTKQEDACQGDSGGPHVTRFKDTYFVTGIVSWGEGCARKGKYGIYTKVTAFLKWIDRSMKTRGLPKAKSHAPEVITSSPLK
# Sequence of Factor Xa (P00742 41-179 partner limits assumed): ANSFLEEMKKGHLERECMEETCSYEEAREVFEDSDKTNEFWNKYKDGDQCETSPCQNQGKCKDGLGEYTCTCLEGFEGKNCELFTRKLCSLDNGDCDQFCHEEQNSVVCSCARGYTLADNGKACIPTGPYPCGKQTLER
structure (smiles),measurement,setting,value
CC[C@H](C)[C@@H]1NC(=O)[C@@H]2CCCN2C(=O)[C@@H]2CCCN2C(=O)[C@H]([C@@H](C)CC)NC(=O)[C@H](CO)NC(=O)[C@H](CCCCN)NC(=O)[C@H]([C@@H](C)O)NC(=O)[C@@H]2CSSC[C@H](NC1=O)C(=O)N[C@@H](Cc1ccccc1)C(=O)N1CCC[C@H]1C(=O)N[C@@H](CC(=O)O)C(=O)NCC(=O)N[C@@H](CCCNC(=N)N)C(=O)N2 [SFTI-1],inhibitory activity against thrombin compared with matriptase,thrombin,three orders of magnitude lower
same,effect on the activity of Factor Xa,Factor Xa,no detectable effect
same,inhibitory constant (Ki) against matriptase,matriptase,subnanomolar
same,inhibitory activity against elastase compared with matriptase,elastase,three orders of magnitude lower
same,Ki,bovine thrombin,5050 nM
same,inhibitory constant (Ki) against cathepsin G,cathepsin G,subnanomolar
same,Ki,[1],500 µM
